Tested on: nitrogen monoxide (NO) production due to IL-1β
Experiment: NO production inhibitory action in IL-1β-stimulated rat liver cells (Griess method)
Assay type: cell-based
Conditions: IL-1β 1 nM, 8 hours; for IC50: nitrite by Griess method, read-out: IC50 value (drug concentration at NO production of 50%)
Experimental: Liver cells were isolated from male Wistar rats (200 to 250 g, Charles River) by a collagenase perfusion method (collagenase: Wako Pure Chemicals). The isolated liver cells were suspended in a medium at 6×10^5 cells/mL, seeded in 35 mm plastic dishes (Falcon Plastic) (2 mL/dish), and cultured in an incubator with 5% CO2 at 37° C. Williams' Medium E (WE) containing 10% newborn calf serum, HEPES (5 mM), penicillin (100 U/mL), streptomycin (0.1 mg/mL), dexamethasone (10 nM), and insulin (10 nM) was used as the medium. After 5 hours, the medium was replaced with fresh WE free of any serum and hormone, and the cells were cultured overnight until before use of the cells for an experiment.
On day 1 after the start of the culture, cells were subjected to replacement with fresh WE free of any serum and hormone, and recombinant rat IL-1β (purity of 97% or more) (PeproTech, Rocky Hill, N.J., USA), and Pa5 extracted with methanol in Example 1 or negletein in the comparative example were added to the medium. In each medium, the concentration of IL-1β was 1 nM, the concentrations of Pa5 were 5, 10, and 20 μM, and the concentrations of negletein were 10, 20, and 40 μM (FIG. 1). The amount of NO in each medium was measured 8 hours after the addition of IL-1β, and Pa5 or negletein by a Griess method (Green L C et al, Anal Biochem 1982; 126: 131-138). More specifically, the amount of nitrite (stable metabolite of NO) in each medium was measured.
Liver cells originated from rats were cultured in like manner with Example 4. On day 1 after the start of the culture, the cells were subjected to replacement with fresh WE free of any serum and hormone, and recombinant rat IL-1β (similar to that in Example 4) and Pa9 extracted with methanol in Example 3 were added to the medium. In each medium, the concentration of IL-1β was 1 nM, and the concentrations of Pa9 were 10 μM, 50 μM, and 100 μM (FIG. 5). The amount of NO in each medium was measured 8 hours after the addition of IL-1β and Pa9 in like manner with Example 4.

Row | IC50 | Structure (SMILES) | production of NO due to IL-1β (Pa9 10, 50, 100 μM) | production of NO due to IL-1β (negletein 10, 20, 40 μM)
1 | 32 µM | O=c1ccc2cc(O)c(O)cc2o1 [Pa9, esculetin] | dose-dependently inhibited | –
2 | 16.3 µM | COc1cc2oc(-c3ccccc3)cc(=O)c2c(O)c1O [negletein, reference compound] | – | dose-dependently inhibited

Reference: patent US9573920B2, “Compound, medicine, anti-inflammatory, cosmetic, food and drink, and method for producing compound” (Amino Up Chemical Co., Ltd., priority 2013, dated 2017)
